In ChEMBL document CHEMBL4825771 (ACS Med Chem Lett, 2021):

Columns and labels:
[1] = molecular target: 5-hydroxytryptamine receptor 2A (Homo sapiens, UniProt P28223); experiment: Displacement of [3H]-ketanserin from human 5-HT2A receptor incubated for 90 mins by scintillation counting analysis
[2] = Metabolic stability in human liver microsomes assessed as intrinsic clearance measured after 60 mins by LC-MS/MS analysis; type: ADME, Microsome; conditions: read-out: CLH
[3] = Metabolic stability in human liver microsomes assessed as half life measured after 60 mins by LC-MS/MS analysis; type: ADME, Microsome

Sequence of 5-hydroxytryptamine receptor 2A (P28223 whole entry): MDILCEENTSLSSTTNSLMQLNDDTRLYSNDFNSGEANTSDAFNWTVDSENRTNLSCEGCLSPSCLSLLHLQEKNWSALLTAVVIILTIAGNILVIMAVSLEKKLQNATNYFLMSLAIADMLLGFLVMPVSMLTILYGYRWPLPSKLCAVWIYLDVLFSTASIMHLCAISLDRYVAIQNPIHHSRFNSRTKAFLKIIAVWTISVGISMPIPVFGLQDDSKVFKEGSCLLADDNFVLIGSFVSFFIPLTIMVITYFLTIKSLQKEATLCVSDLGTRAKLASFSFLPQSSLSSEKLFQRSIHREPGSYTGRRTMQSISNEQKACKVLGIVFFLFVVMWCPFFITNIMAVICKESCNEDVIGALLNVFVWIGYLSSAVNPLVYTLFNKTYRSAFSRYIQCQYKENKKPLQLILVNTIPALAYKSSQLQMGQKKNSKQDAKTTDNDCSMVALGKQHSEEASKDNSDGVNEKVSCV

[2H]C([2H])([2H])N(C([2H])([2H])[2H])C([2H])([2H])C([2H])([2H])c1c[nH]c2cccc(OC(=O)CCCCCCCC/C=C\C/C=C\CCCCC)c12
EC50 [1]: 0.965 µM
microsomal CLint [2]: 10.4 µL/min/mg
half-life at 2 µM [3]: 2.23 h
